The numbers were not newly measured in patent publication US6641797B2, “Perfluoroalkyl-containing complexes with sugar radicals, process for their production and their use” (Schering Aktiengesellschaft, priority 2000, dated 2003), which cites them from elsewhere.

The conditions of series [1]: 39° C., 0.47 T; cited from earlier work.
For series [2] the following is noted: 39° C., 0.47 T; cited from earlier work. The source holds these as a separate data set.
The conditions of series [3]: in vivo; cited from earlier work.
The subject of series [4] is necrotic portion of a tumor. Particulars: in vivo; cited from earlier work.
The test system of a further series is infarcted tissue. Conditions: cited from earlier work.

Values joined by “and” are separate entries in the source; they are usually repeats but may differ in a detail not shown here. Identical values can stand only once.

For `CNC[C@H](O)[C@@H](O)[C@H](O)[C@H](O)CO.O=C([O-])CN1CCN(CC(=O)[O-])CCN(CC(=O)O)CCN(CC(=O)[O-])CC1.[Gd+3]` [DOTAREM^(R)], the “T^1-Relaxivity in Water” value in series [1] was 3.5 L/mmol/s. Also, in series [2], the “T^1-Relaxivity in Plasma” value was 4.3 L/mmol/s.

In the case of `CNC[C@H](O)[C@@H](O)[C@H](O)[C@H](O)CO.CNC[C@H](O)[C@@H](O)[C@H](O)[C@H](O)CO.O=C([O-])CN(CCN(CC(=O)[O-])CC(=O)O)CCN(CC(=O)[O-])CC(=O)O.[Gd+3]` [MAGNEVIST^(R), Gd-DTPA], the “T^1-Relaxivity in Water” value in series [1] was 3.8 L/mmol/s. Moreover, the “T^1-Relaxivity in Plasma” value in series [2] is 4.8 L/mmol/s.

On to `O=S(=O)([O-])c1ccc(-c2c3nc(c(-c4ccc(S(=O)(=O)[O-])cc4)c4ccc([n-]4)c(-c4ccc(S(=O)(=O)[O-])cc4)c4nc(c(-c5ccc(S(=O)(=O)[O-])cc5)c5ccc2[n-]5)C=C4)C=C3)cc1.[Mn+3]` [Mn-TPPS, manganese-5,10,15,20-tetrakis(4-sulfonatophenyl)-porphyrin], for which the LD50 entry in series [3] is on record as “approximately 0.5 mmol/kg”. The “accumulation in the necrotic portion of a tumor” value in series [4] is “selectively accumulates in the necrotic portion of a tumor”.

Take `CNC(=O)CN(CCN(CCN(CC(=O)[O-])CC(=O)NC)CC(=O)[O-])CC(=O)[O-].[Gd+3]` [OMNISCAN^(R)]: the “T^1-Relaxivity in Water” value in series [1] is 3.8 L/mmol/s. Also, the “T^1-Relaxivity in Plasma” value in series [2] is 4.4 L/mmol/s.

Turning to `C[n+]1ccc(-c2c3nc(c(-c4cc[n+](C)cc4)c4ccc([n-]4)c(-c4cc[n+](C)cc4)c4nc(c(-c5cc[n+](C)cc5)c5ccc2[n-]5)C=C4)C=C3)cc1.[111In+3]` [TMPyP, ^111In-5,10,15,20-tetrakis-(4-N-methyl-pyridinium)-porphyrin], the “accumulation in the necrotic portion of a tumor” value in series [4] is recorded as “does not accumulate in the necrotic portion”.

In the case of gadolinium-mesoporphyrin [Gd-MP], the “ratio of the signal intensities in MRI, infarcted in comparison to healthy tissue” value in the series on infarcted tissue (kidney and myocardium) is 2.10 and 2.19. The “metal content of infarcted tissue versus non-infarcted, myocardium” value in the series with infarcted tissue (myocardium (Example 1 of WO 95/31219)) is recorded as “nine times as large”.
